Columns and labels:
[1] = system: catecholaminergic fibers projecting to pancreatic LN; design: species or system tdTomatoTH-Cre mice
[2] = system: OVA-specific CD8+ TCR transgenic T-cells; experiment: Pancreatic auto-antigen cross-presentation: proliferation of adoptively transferred OVA-specific CD8+ T cells in RIP-OVA mice under PNES; format: in vivo, RIP-OVA transgenic mice; settings: PNES 450 μA, 10 Hz, 2 mn, 3 times/day; FIG. 3C

Row | SMILES | Field Action Potentials (FAP) peak amplitude after addition of TTX to the medium [1] | Effect of PNES on auto-antigen cross-presentation (T cell proliferation relative to sham) in mice treated with propranolol [2]
1 | NC1=N[C@H](O)[C@H]2[C@H]3O[C@]4(O)O[C@@H]([C@@H](O)[C@@]2(N1)[C@@H]4O)[C@]3(O)CO [tetrodotoxin] | inhibited | –
2 | CC(C)NCC(O)COc1cccc2ccccc12 (centres unmarked) [propranolol] | – | β-AR-dependent
